{"source": "patent US20040241860A1", "about": "“Method of breeding glyphosate resistant plants” (Advanta Technology Limited, priority 1998, published 2004)", "type_in_all_cases": "in vivo, corn", "key": {"[1]": {"test_system": "homozygous susceptible plants (rr)", "assay": "Foliar glyphosate spray of known susceptible check plants, plant mortality (Example 1)", "text": "(§1) Progeny of a cross between a homozygous resistant plant (RR) and a homozygous susceptible plant (rr) were planted at the Garst Research Centre near Slater, Iowa, and at the Hawaii Research Centre near Kunia, Hi. It was expected that none of the progeny would segregate for resistance to foliar applications of glyphosate. To test this, the progeny growing at the IA test site were sprayed with glyphosate at a rate of 64 oz per acre during the V5 and V6 stages of growth (26 days after planting). At the same time and rate, several plants in a row of known susceptible plants were sprayed. All of the sprayed plots were examined for plant mortality 7 days after spraying. As expected, all of the susceptible check plants were dead and while all of the putative heterozygous resistant plants were alive (Table 1)."}, "[2]": {"test_system": "progeny of crosses between heterozygous resistant plants and homozygous susceptible plants", "assay": "Evaluation of progeny from Sprayed and Unsprayed classes: counts of resistant and susceptible plants after glyphosate spray (Example 2)", "details": "progeny sprayed 64 oz per acre V3-V4, counted ten days post-application", "text": "(§2) A second application of 32oz per acre was applied to the heterozyous resistant plants at the V7 to V8 stage of growth (9 days later). These plants comprised the “Sprayed” class in subsequent experiments. In HI, none of the plants were sprayed with glyphosate and these plants comprised the “Unsprayed” class in subsequent experiments. At both locations, crosses were made between the heterozygous resistant plants and homozygous susceptible plants.\nProgeny of the crosses from each class were planted at the HI location. All progeny plants from each class were sprayed with glyphosate at a rate of 64 oz per acre during the V3 to V4 stages of growth. Ten days post-application, counts of resistant and susceptible plants were made for each class. The expected segregation, 1:1 resistant to susceptible, was compared to the observed segregation for each class (Table 2)."}, "[3]": {"test_system": "heterozygous resistant plants (Rr, Glyphosate-resistance event GA21)", "assay": "Foliar glyphosate spray of putative heterozygous resistant plants, plant mortality (Example 1)", "text": "as §1, §2"}, "[4]": {"details": "progeny of Unsprayed class (parents not sprayed), 182 plants"}}}
{"smiles": "O=C(O)CNCP(=O)(O)O", "note": "[glyphosate]", "values": [{"measurement": "Observed Segregation", "setting": "[1]; class Homozygous Susceptible, 64 oz per acre at the same time and rate, examined 7 days after spraying", "value": "All Susceptible"}, {"measurement": "plant mortality", "setting": "[1]; susceptible check plants, 64 oz per acre, 7 days after spraying", "value": "dead"}, {"measurement": "Observed Segregation: Resistant plants", "setting": "[2]; progeny of Sprayed class (parents 64 oz per acre V5-V6 plus 32 oz per acre V7-V8), 504 plants", "value": 504}, {"measurement": "Observed Segregation: Resistant plants", "setting": "[2]; [4]", "value": 100}, {"measurement": "Observed Segregation: Susceptible plants", "setting": "[2]; [4]", "value": 82}, {"measurement": "Observed Segregation", "setting": "[3]; class Heterozygous Resistant, 64 oz per acre at V5 and V6 stages (26 days after planting), examined 7 days after spraying", "value": "All Resistant"}, {"measurement": "plant mortality", "setting": "[3]; putative heterozygous resistant plants, 64 oz per acre, V5 and V6, 7 days after spraying", "value": "alive"}]}
